Values joined by “and” are separate entries in the source; they are usually repeats but may differ in a detail not shown here. Identical values can stand only once.
Tests used:
[1] = tested on: Escherichia coli K-12 ATCC 25253; format: cell-based
Salmonella Newport = assay: Biofilm formation on food contact surface coupons, direct plating; format: cell-based, Salmonella enterica; details: two-minute treatment
Procedure: A protocol based on direct plating was also evaluated for testing the biofilm formation by Salmonella or L. monocytogenes. Biofilms were formed on three different food contact surface coupons (HDPE, Buna-N rubber, and 316 stainless steel) for up to 3 days in 35 mm mini-petri dishes. Biofilms were formed using a 1:10 diluted TSB solution (10 mL) with either S. enterica or L. monocytogenes inoculum (100 μL). The diluted TSB was changed every 16-18 hours with new 1:10 diluted TSB (10 mL). Coupons were removed for sampling and enumeration of strongly attached bacteria at three different time points (Day 0, 1, and 3). The coupons were rinsed with deionized water five times to remove planktonic cells. Then the coupons were immersed in 10 mL of BPW. The coupons were sonicated for 2 minutes using different settings (Tables 11 and 12) for each organism. After sonication, the solution was serially diluted and plated on Tryptic Soy Agar (TSA). Plates were incubated at 37° C. for 24-48 hours. The colonies were counted and the colony forming units were determined for the various sonication settings, so that the appropriate setting with the most recovery could be determined. […] These settings were used in further experiments to recover the bacterial cells from coupons during sampling and enumeration (by spread plating) of the bacteria in biofilms.
The reduction in bacterial biofilm formation was also tested using a direct plating method. Biofilms were formed on six different food contact surface coupons (HDPE, Buna-N rubber, PC, PVC, and stainless steel 304 and 316) in separate 35 mm mini-petri dishes and evaluated at three different time points (Day 0, 1, and 3). Biofilms were formed using a 1:10 diluted TSB solution (10 mL) with either S. enterica or L. monocytogenes inoculum (100 μL). The coupons were also washed and treated with antimicrobial solutions containing the plant-based emulsifier and the essential oil/plant extracts at various concentrations. The diluted TSB was changed every 16-18 hours with new 1:10 diluted TSB (10 mL). The coupons were rinsed in the antimicrobial solution before adding them to the petri dishes containing the fresh, diluted TSB. After their specific time points, coupons were removed aseptically using sterile forceps from the petri dish. The coupons were rinsed by submerging in 25 mL of sterile deionized H2O and swirled five times to remove planktonic cells. After rinsing, they were placed into a new petri dish immersed in 10 mL of BPW. The coupons were sonicated for 2 minutes on ice using different settings for each organism. After sonication, the sonicated solution was serially diluted using 0.1% peptone water and spread plated on TSA in duplicate. Plates were incubated overnight at 37° C. for 24-48 hours, after which, the colonies were counted, to establish the efficacy of the antimicrobial solutions (Tables 17-25).

Compound: OO [3% hydrogen peroxide, hydrogen peroxide]
- Bacterial reductions on spinach samples after sanitizer treatments [1]: 0.8-1.2 Log CFU/g and 1.0-1.3 Log CFU/g
- log reduction of E. coli K-12 on spinach [1]: 0.8-1.2 log and 1.0-1.3 log

Compound: O=CC=Cc1ccccc1 [Cinnamaldehyde, cinnamaldehyde]
- Survivors of Salmonella Newport on food contact surface (Salmonella Newport; 0.5% with 0.0001% saponin microemulsion, Day 0, 304 SS): 4.31 Log CFU/mL
- Survivors of Salmonella Newport on food contact surface (Salmonella Newport; 0.5% with 0.0001% saponin microemulsion, Day 0, 316 SS): 4.30 Log CFU/mL
- Survivors of Salmonella Newport on food contact surface (Salmonella Newport; 0.5% with 0.0001% saponin microemulsion, Day 0, Buna N): 4.23 Log CFU/mL
- Survivors of Salmonella Newport on food contact surface (Salmonella Newport; 0.5% with 0.0001% saponin microemulsion, Day 0, HDPE): 4.27 Log CFU/mL
- Survivors of Salmonella Newport on food contact surface (Salmonella Newport; 0.5% with 0.0001% saponin microemulsion, Day 0, PC): 4.06 Log CFU/mL
- Survivors of Salmonella Newport on food contact surface (Salmonella Newport; 0.5% with 0.0001% saponin microemulsion, Day 0, PVC): 3.93 Log CFU/mL
- Survivors of Salmonella Newport on food contact surface (Salmonella Newport; 0.5% with 0.0001% saponin microemulsion, Day 1, 304 SS): 4.45 Log CFU/mL
- Survivors of Salmonella Newport on food contact surface (Salmonella Newport; 0.5% with 0.0001% saponin microemulsion, Day 1, 316 SS): 4.48 Log CFU/mL
- Survivors of Salmonella Newport on food contact surface (Salmonella Newport; 0.5% with 0.0001% saponin microemulsion, Day 1, Buna N): 4.87 Log CFU/mL
- Survivors of Salmonella Newport on food contact surface (Salmonella Newport; 0.5% with 0.0001% saponin microemulsion, Day 1, HDPE): 4.24 Log CFU/mL
- Survivors of Salmonella Newport on food contact surface (Salmonella Newport; 0.5% with 0.0001% saponin microemulsion, Day 1, PC): 4.20 Log CFU/mL
- Survivors of Salmonella Newport on food contact surface (Salmonella Newport; 0.5% with 0.0001% saponin microemulsion, Day 1, PVC): 4.36 Log CFU/mL
- Survivors of Salmonella Newport on food contact surface (Salmonella Newport; 0.5% with 0.0001% saponin microemulsion, Day 3, 304 SS): 4.39 Log CFU/mL
- Survivors of Salmonella Newport on food contact surface (Salmonella Newport; 0.5% with 0.0001% saponin microemulsion, Day 3, 316 SS): 4.26 Log CFU/mL
- Survivors of Salmonella Newport on food contact surface (Salmonella Newport; 0.5% with 0.0001% saponin microemulsion, Day 3, Buna N): 4.34 Log CFU/mL
- Survivors of Salmonella Newport on food contact surface (Salmonella Newport; 0.5% with 0.0001% saponin microemulsion, Day 3, HDPE): 3.24 Log CFU/mL
- Survivors of Salmonella Newport on food contact surface (Salmonella Newport; 0.5% with 0.0001% saponin microemulsion, Day 3, PC): 3.75 Log CFU/mL
- Survivors of Salmonella Newport on food contact surface (Salmonella Newport; 0.5% with 0.0001% saponin microemulsion, Day 3, PVC): 4.21 Log CFU/mL
- Survivors of Salmonella Newport on food contact surface (Salmonella Newport; 0.7% with 0.0001% saponin microemulsion, Day 0, 304 SS): 4.0 Log CFU/mL
- Survivors of Salmonella Newport on food contact surface (Salmonella Newport; 0.7% with 0.0001% saponin microemulsion, Day 0, 316 SS): 4.68 Log CFU/mL
- Survivors of Salmonella Newport on food contact surface (Salmonella Newport; 0.7% with 0.0001% saponin microemulsion, Day 0, Buna N): 4.08 Log CFU/mL
- Survivors of Salmonella Newport on food contact surface (Salmonella Newport; 0.7% with 0.0001% saponin microemulsion, Day 0, HDPE): 4.42 Log CFU/mL
- Survivors of Salmonella Newport on food contact surface (Salmonella Newport; 0.7% with 0.0001% saponin microemulsion, Day 0, PC): 4.11 Log CFU/mL
- Survivors of Salmonella Newport on food contact surface (Salmonella Newport; 0.7% with 0.0001% saponin microemulsion, Day 0, PVC): <1 Log CFU/mL
- Survivors of Salmonella Newport on food contact surface (Salmonella Newport; 0.7% with 0.0001% saponin microemulsion, Day 1, 304 SS): 3.68 Log CFU/mL
- Survivors of Salmonella Newport on food contact surface (Salmonella Newport; 0.7% with 0.0001% saponin microemulsion, Day 1, 316 SS): 3.0 Log CFU/mL
- Survivors of Salmonella Newport on food contact surface (Salmonella Newport; 0.7% with 0.0001% saponin microemulsion, Day 1, Buna N): 3.24 Log CFU/mL
- Survivors of Salmonella Newport on food contact surface (Salmonella Newport; 0.7% with 0.0001% saponin microemulsion, Day 1, HDPE): <1 Log CFU/mL
- Survivors of Salmonella Newport on food contact surface (Salmonella Newport; 0.7% with 0.0001% saponin microemulsion, Day 1, PC): 3.29 Log CFU/mL
- Survivors of Salmonella Newport on food contact surface (Salmonella Newport; 0.7% with 0.0001% saponin microemulsion, Day 1, PVC): <1 Log CFU/mL
- Survivors of Salmonella Newport on food contact surface (Salmonella Newport; 0.7% with 0.0001% saponin microemulsion, Day 3, 304 SS): <1 Log CFU/mL
- Survivors of Salmonella Newport on food contact surface (Salmonella Newport; 0.7% with 0.0001% saponin microemulsion, Day 3, 316 SS): <1 Log CFU/mL
- Survivors of Salmonella Newport on food contact surface (Salmonella Newport; 0.7% with 0.0001% saponin microemulsion, Day 3, Buna N): <1 Log CFU/mL
- Survivors of Salmonella Newport on food contact surface (Salmonella Newport; 0.7% with 0.0001% saponin microemulsion, Day 3, HDPE): <1 Log CFU/mL
- Survivors of Salmonella Newport on food contact surface (Salmonella Newport; 0.7% with 0.0001% saponin microemulsion, Day 3, PC): <1 Log CFU/mL
- Survivors of Salmonella Newport on food contact surface (Salmonella Newport; 0.7% with 0.0001% saponin microemulsion, Day 3, PVC): <1 Log CFU/mL
- Survivors of Salmonella Newport on food contact surface (Salmonella Newport; 1% with 0.0001% saponin microemulsion, Day 0, 304 SS): <1 Log CFU/mL
- Survivors of Salmonella Newport on food contact surface (Salmonella Newport; 1% with 0.0001% saponin microemulsion, Day 0, 316 SS): <1 Log CFU/mL
- Survivors of Salmonella Newport on food contact surface (Salmonella Newport; 1% with 0.0001% saponin microemulsion, Day 0, Buna N): <1 Log CFU/mL
- Survivors of Salmonella Newport on food contact surface (Salmonella Newport; 1% with 0.0001% saponin microemulsion, Day 0, HDPE): <1 Log CFU/mL
- Survivors of Salmonella Newport on food contact surface (Salmonella Newport; 1% with 0.0001% saponin microemulsion, Day 0, PC): <1 Log CFU/mL
- Survivors of Salmonella Newport on food contact surface (Salmonella Newport; 1% with 0.0001% saponin microemulsion, Day 0, PVC): <1 Log CFU/mL
- Survivors of Salmonella Newport on food contact surface (Salmonella Newport; 1% with 0.0001% saponin microemulsion, Day 1, 304 SS): <1 Log CFU/mL
- Survivors of Salmonella Newport on food contact surface (Salmonella Newport; 1% with 0.0001% saponin microemulsion, Day 1, 316 SS): <1 Log CFU/mL
- Survivors of Salmonella Newport on food contact surface (Salmonella Newport; 1% with 0.0001% saponin microemulsion, Day 1, Buna N): <1 Log CFU/mL
- Survivors of Salmonella Newport on food contact surface (Salmonella Newport; 1% with 0.0001% saponin microemulsion, Day 1, HDPE): <1 Log CFU/mL
- Survivors of Salmonella Newport on food contact surface (Salmonella Newport; 1% with 0.0001% saponin microemulsion, Day 1, PC): <1 Log CFU/mL
- Survivors of Salmonella Newport on food contact surface (Salmonella Newport; 1% with 0.0001% saponin microemulsion, Day 1, PVC): <1 Log CFU/mL
- Survivors of Salmonella Newport on food contact surface (Salmonella Newport; 1% with 0.0001% saponin microemulsion, Day 3, 304 SS): <1 Log CFU/mL
- Survivors of Salmonella Newport on food contact surface (Salmonella Newport; 1% with 0.0001% saponin microemulsion, Day 3, 316 SS): <1 Log CFU/mL
- Survivors of Salmonella Newport on food contact surface (Salmonella Newport; 1% with 0.0001% saponin microemulsion, Day 3, Buna N): <1 Log CFU/mL
- Survivors of Salmonella Newport on food contact surface (Salmonella Newport; 1% with 0.0001% saponin microemulsion, Day 3, HDPE): <1 Log CFU/mL
- Survivors of Salmonella Newport on food contact surface (Salmonella Newport; 1% with 0.0001% saponin microemulsion, Day 3, PC): <1 Log CFU/mL
- Survivors of Salmonella Newport on food contact surface (Salmonella Newport; 1% with 0.0001% saponin microemulsion, Day 3, PVC): <1 Log CFU/mL
